Data from ChEMBL document CHEMBL1833947, “Synthesis and biological investigation of potential atypical antipsychotics with a tropane core. Part 1” (Eur J Med Chem, 2011).
Activity calls are given as the source filed them. The rule behind the calls is not given here.

What was measured:
[1] = tested on: Rattus norvegicus; assay: Antipsychotic activity in 8-OH-DPAT-stimulated rat assessed as lower lip retractions at 10 mg/kg, iv administered 45 mins before 8-OH-DPAT challenge measured after 15 to 45 mins (reference value: 2.9 retractions); assay type: functional
[2] = tested on: Rattus norvegicus; assay: Antipsychotic activity in 8-OH-DPAT-stimulated rat assessed as lower lip retractions at 20 mg/kg, iv administered 45 mins before 8-OH-DPAT challenge measured after 15 to 45 mins (reference value: 2.9 retractions); assay type: functional
[3] = molecular target: T1, 5-hydroxytryptamine receptor 1A (Rattus norvegicus, UniProt P19327); assay: Displacement of [3H]8OH-DPAT from 5HT1A in rat brain cerebral cortex after 15 mins by scintillation counting; assay type: tissue-based
T1 sequence (P19327 whole entry): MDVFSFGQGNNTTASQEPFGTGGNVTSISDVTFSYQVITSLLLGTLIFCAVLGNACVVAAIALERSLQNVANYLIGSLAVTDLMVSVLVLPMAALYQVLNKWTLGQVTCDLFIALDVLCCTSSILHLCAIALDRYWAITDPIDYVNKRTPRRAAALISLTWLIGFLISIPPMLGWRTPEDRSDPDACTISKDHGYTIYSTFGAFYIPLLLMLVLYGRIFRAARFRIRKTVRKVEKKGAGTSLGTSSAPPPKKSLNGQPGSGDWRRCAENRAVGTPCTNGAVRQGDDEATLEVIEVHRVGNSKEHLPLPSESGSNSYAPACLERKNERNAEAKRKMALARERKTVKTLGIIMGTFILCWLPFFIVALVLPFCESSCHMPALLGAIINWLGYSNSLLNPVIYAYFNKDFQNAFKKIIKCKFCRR

[4] = molecular target: 5-hydroxytryptamine receptor 2A (Rattus norvegicus, UniProt P14842); assay: Displacement of [3H]ketanserin from 5HT2A in rat brain cerebral cortex after 20 mins by scintillation counting; assay type: tissue-based
[5] = molecular target: D(2) dopamine receptor (Rattus norvegicus, UniProt P61169); assay: Displacement of [3H]spiperone from dopamine D2 receptor in rat striatum tissue after 20 mins by scintillation counting; assay type: tissue-based
[6] = tested on: Mus musculus; assay: Antipsychotic activity in mouse assessed as reversal of apomorphine-induced mesh climbing response at 50 mg/kg, ip administered 10 mins prior to apomorphine challenge measured after 30 mins; assay type: functional, organism-based; set-up: dose 50 mg/kg
[7] = tested on: Mus musculus; assay: Antipsychotic activity in mouse assessed as reversal of DOI-induced head twitches at 5 mg/kg, ip administered 30 mins before DOI challenge; assay type: functional; conditions: route intraperitoneal
[8] = tested on: Mus musculus; assay: Antipsychotic activity in mouse assessed as reversal of DOI-induced head twitches at 20 mg/kg, ip administered 30 mins before DOI challenge; assay type: functional; conditions: route intraperitoneal
[9] = tested on: Rattus norvegicus; assay: Induction of 5HT1A receptor in rat assesses as lower lip retractions at 10 mg/kg, iv after 15 mins (reference value: 0.1 +/- 0.1 retractions); assay type: functional
[10] = tested on: Rattus norvegicus; assay: Induction of 5HT1A receptor in rat assesses as lower lip retractions at 20 mg/kg, iv after 15 mins (reference value: 0.1 +/- 0.1 retractions); assay type: functional
[11] = species: Mus musculus; conditions: Swiss albino, 5 mg/kg
Description: Hypothermic effect in Swiss albino mouse assessed as change in body temperature at 5 mg/kg, ip measured after 30 mins

[12] = species: Mus musculus; conditions: Swiss albino, 10 mg/kg
Description: Hypothermic effect in Swiss albino mouse assessed as change in body temperature at 10 mg/kg, ip measured after 30 mins

[13] = species: Mus musculus; conditions: Swiss albino, 20 mg/kg
Description: Hypothermic effect in Swiss albino mouse assessed as change in body temperature at 20 mg/kg, ip measured after 30 mins

[14] = species: Mus musculus; conditions: Swiss albino, 5 mg/kg; remark: listed apart in the source
Description: Hypothermic effect in Swiss albino mouse assessed as change in body temperature at 5 mg/kg, ip measured after 60 mins

[15] = species: Mus musculus; conditions: Swiss albino, 10 mg/kg; remark: listed apart in the source
Description: Hypothermic effect in Swiss albino mouse assessed as change in body temperature at 10 mg/kg, ip measured after 60 mins

[16] = species: Mus musculus; conditions: Swiss albino, 20 mg/kg; remark: listed apart in the source
Description: Hypothermic effect in Swiss albino mouse assessed as change in body temperature at 20 mg/kg, ip measured after 60 mins

[17] = species: Mus musculus; conditions: Swiss albino, 5 mg/kg; remark: listed apart in the source
Description: Hypothermic effect in Swiss albino mouse assessed as change in body temperature at 5 mg/kg, ip measured after 90 mins

[18] = species: Mus musculus; conditions: Swiss albino, 10 mg/kg; remark: listed apart in the source
Description: Hypothermic effect in Swiss albino mouse assessed as change in body temperature at 10 mg/kg, ip measured after 90 mins

[19] = species: Mus musculus; conditions: Swiss albino, 20 mg/kg; remark: listed apart in the source
Description: Hypothermic effect in Swiss albino mouse assessed as change in body temperature at 20 mg/kg, ip measured after 90 mins

[20] = species: Mus musculus; conditions: Swiss albino, 5 mg/kg; remark: listed apart in the source
Description: Hypothermic effect in Swiss albino mouse assessed as change in body temperature at 5 mg/kg, ip measured after 120 mins

[21] = species: Mus musculus; conditions: Swiss albino, 10 mg/kg; remark: listed apart in the source
Description: Hypothermic effect in Swiss albino mouse assessed as change in body temperature at 10 mg/kg, ip measured after 120 mins

[22] = species: Mus musculus; conditions: Swiss albino, 20 mg/kg; remark: listed apart in the source
Description: Hypothermic effect in Swiss albino mouse assessed as change in body temperature at 20 mg/kg, ip measured after 120 mins

[23] = species: Mus musculus; conditions: Swiss albino, 20 mg/kg; remark: listed apart in the source
Description: Hypothermic effect in Swiss albino mouse assessed as change in body temperature at 20 mg/kg, ip measured after 15 mins in presence of 5 mg/kg, sc 8-OH-DPAT

[24] = species: Mus musculus; conditions: Swiss albino, 20 mg/kg; remark: listed apart in the source
Description: Hypothermic effect in Swiss albino mouse assessed as change in body temperature at 20 mg/kg, ip measured after 30 mins in presence of 5 mg/kg, sc 8-OH-DPAT

[25] = species: Mus musculus; conditions: Swiss albino, 20 mg/kg; remark: listed apart in the source
Description: Hypothermic effect in Swiss albino mouse assessed as change in body temperature at 20 mg/kg, ip measured after 45 mins in presence of 5 mg/kg, sc 8-OH-DPAT

[26] = species: Mus musculus; conditions: Swiss albino, 20 mg/kg; remark: listed apart in the source
Description: Hypothermic effect in Swiss albino mouse assessed as change in body temperature at 20 mg/kg, ip measured after 60 mins in presence of 5 mg/kg, sc 8-OH-DPAT

[27] = tested on: Mus musculus; assay: Antipsychotic activity in mouse assessed as reversal of apomorphine-induced mesh climbing response at 50 mg/kg, ip administered 20 mins prior to apomorphine challenge measured after 40 mins
[28] = tested on: Rattus norvegicus; assay: Induction of 5HT1A receptor in rat assesses as lower lip retractions at 0.1 mg/kg, iv after 15 mins (reference value: 0.1 +/- 0.1 retractions); assay type: functional
[29] = tested on: Rattus norvegicus; assay: Antipsychotic activity in 8-OH-DPAT-stimulated rat assessed as lower lip retractions at 0.1 mg/kg, iv administered 45 mins before 8-OH-DPAT challenge measured after 15 to 45 mins (reference value: 2.9 retractions); assay type: functional
[30] = tested on: Rattus norvegicus; assay: Antipsychotic activity in 8-OH-DPAT-stimulated rat assessed as lower lip retractions at 5 mg/kg, iv administered 45 mins before 8-OH-DPAT challenge measured after 15 to 45 mins (reference value: 2.9 retractions); assay type: functional
[31] = tested on: Mus musculus; assay: Anxiolytic-like activity in mouse assessed as number of punished crossing at 5 mg/kg, ip after 6 mins by four-plate test (reference value: 1514 +/- 73 crossings); assay type: functional; conditions: route intraperitoneal
[32] = tested on: Mus musculus; assay: Anxiolytic-like activity in mouse assessed as number of punished crossing at 5 mg/kg, ip after 30 mins by four-plate test (reference value: 1514 +/- 73 crossings); assay type: functional; conditions: route intraperitoneal
[33] = tested on: Mus musculus; assay: Antidepressant-like activity in Swiss albino mouse assessed as immobilization time at 2.5 mg/kg, ip after 30 mins by forced swim test; assay type: functional, organism-based; set-up: dose 2.5 mg/kg
[34] = tested on: Mus musculus; assay: Antidepressant-like activity in Swiss albino mouse assessed as immobilization time at 5 mg/kg, ip after 30 mins by forced swim test; assay type: functional, organism-based; set-up: dose 5 mg/kg
[35] = tested on: Mus musculus; assay: Antipsychotic activity in mouse assessed as reversal of DOI-induced head twitches at 10 mg/kg, ip administered 30 mins before DOI challenge; assay type: functional; conditions: route intraperitoneal
[36] = tested on: Rattus norvegicus; assay: Induction of 5HT1A receptor in rat assesses as lower lip retractions at 5 mg/kg, iv after 15 mins (reference value: 0.1 +/- 0.1 retractions); assay type: functional
[37] = species: Mus musculus; conditions: Swiss albino, 2.5 mg/kg
Description: Hypothermic effect in Swiss albino mouse assessed as change in body temperature at 2.5 mg/kg, ip measured after 30 mins

[38] = species: Mus musculus; conditions: Swiss albino, 2.5 mg/kg; remark: listed apart in the source
Description: Hypothermic effect in Swiss albino mouse assessed as change in body temperature at 2.5 mg/kg, ip measured after 60 mins

[39] = species: Mus musculus; conditions: Swiss albino, 2.5 mg/kg; remark: listed apart in the source
Description: Hypothermic effect in Swiss albino mouse assessed as change in body temperature at 2.5 mg/kg, ip measured after 90 mins

[40] = species: Mus musculus; conditions: Swiss albino, 2.5 mg/kg; remark: listed apart in the source
Description: Hypothermic effect in Swiss albino mouse assessed as change in body temperature at 2.5 mg/kg, ip measured after 120 mins

[41] = species: Mus musculus; conditions: Swiss albino, 5 mg/kg; remark: listed apart in the source
Description: Hypothermic effect in Swiss albino mouse assessed as change in body temperature at 5 mg/kg, ip measured after 30 mins in presence of 0.1 mg/kg, sc 5-HT1A antagonist WAY 100635

[42] = species: Mus musculus; conditions: Swiss albino, 5 mg/kg; remark: listed apart in the source
Description: Hypothermic effect in Swiss albino mouse assessed as change in body temperature at 5 mg/kg, ip measured after 60 mins in presence of 0.1 mg/kg, sc 5-HT1A antagonist WAY 100635

[43] = tested on: Mus musculus; assay: Antidepressant-like activity in Swiss albino mouse assessed as immobilization time at 1 mg/kg, sc after 30 mins by forced swim test; assay type: functional; conditions: route subcutaneous
[44] = tested on: Mus musculus; assay: Antidepressant-like activity in Swiss albino mouse assessed as immobilization time at 2 mg/kg, sc after 30 mins by forced swim test; assay type: functional; conditions: route subcutaneous
[45] = tested on: Mus musculus; assay: Antidepressant-like activity in Swiss albino mouse assessed as immobilization time at 10 mg/kg, ip after 30 mins by forced swim test; assay type: functional
[46] = tested on: Mus musculus; assay: Antidepressant-like activity in Swiss albino mouse assessed as immobilization time at 20 mg/kg, ip after 30 mins by forced swim test; assay type: functional, organism-based; set-up: dose 20 mg/kg
[47] = tested on: Mus musculus; assay: Antipsychotic activity in mouse assessed as reversal of apomorphine-induced mesh climbing response at 10 mg/kg, ip administered 10 mins prior to apomorphine challenge measured after 40 mins; assay type: functional, organism-based; set-up: dose 10 mg/kg
[48] = tested on: Mus musculus; assay: Antipsychotic activity in mouse assessed as reversal of apomorphine-induced mesh climbing response at 10 mg/kg, ip administered 10 mins prior to apomorphine challenge measured after 50 mins; assay type: functional, organism-based; set-up: dose 10 mg/kg
[49] = tested on: Mus musculus; assay: Antipsychotic activity in mouse assessed as reversal of apomorphine-induced mesh climbing response at 10 mg/kg, ip administered 10 mins prior to apomorphine challenge measured after 60 mins; assay type: functional, organism-based; set-up: dose 10 mg/kg
[50] = species: Mus musculus; conditions: Swiss albino, 20 mg/kg; remark: listed apart in the source
Description: Hypothermic effect in Swiss albino mouse assessed as change in body temperature at 20 mg/kg, ip measured after 30 mins in presence of 0.1 mg/kg, sc 5-HT1A antagonist WAY 100635

[51] = species: Mus musculus; conditions: Swiss albino, 20 mg/kg; remark: listed apart in the source
Description: Hypothermic effect in Swiss albino mouse assessed as change in body temperature at 20 mg/kg, ip measured after 60 mins in presence of 0.1 mg/kg, sc 5-HT1A antagonist WAY 100635

[52] = tested on: Mus musculus; assay: Antipsychotic activity in mouse assessed as reversal of apomorphine-induced mesh climbing response at 50 mg/kg, ip administered 20 mins prior to apomorphine challenge measured after 120 mins
[53] = tested on: Mus musculus; assay: Anxiolytic-like activity in mouse assessed as number of punished crossing at 10 mg/kg, ip after 6 mins by four-plate test (reference value: 554 +/- 46 crossings); assay type: functional; conditions: route intraperitoneal
[54] = tested on: Mus musculus; assay: Anxiolytic-like activity in mouse assessed as number of punished crossing at 10 mg/kg, ip after 30 mins by four-plate test (reference value: 554 +/- 46 crossings); assay type: functional; conditions: route intraperitoneal

Sequence of 5-hydroxytryptamine receptor 2A (P14842 whole entry): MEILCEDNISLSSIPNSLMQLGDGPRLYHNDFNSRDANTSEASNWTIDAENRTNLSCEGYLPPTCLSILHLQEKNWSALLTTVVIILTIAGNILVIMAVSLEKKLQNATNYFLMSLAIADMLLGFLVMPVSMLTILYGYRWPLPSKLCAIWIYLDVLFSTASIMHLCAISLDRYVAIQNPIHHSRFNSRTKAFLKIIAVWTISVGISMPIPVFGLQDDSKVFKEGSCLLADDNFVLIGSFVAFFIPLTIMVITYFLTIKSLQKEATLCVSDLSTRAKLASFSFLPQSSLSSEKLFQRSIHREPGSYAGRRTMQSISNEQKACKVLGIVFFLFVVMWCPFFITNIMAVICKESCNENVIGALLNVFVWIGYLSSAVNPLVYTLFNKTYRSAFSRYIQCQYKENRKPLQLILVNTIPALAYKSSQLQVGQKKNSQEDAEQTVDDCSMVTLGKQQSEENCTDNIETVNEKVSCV
Sequence of D(2) dopamine receptor (P61169 whole entry): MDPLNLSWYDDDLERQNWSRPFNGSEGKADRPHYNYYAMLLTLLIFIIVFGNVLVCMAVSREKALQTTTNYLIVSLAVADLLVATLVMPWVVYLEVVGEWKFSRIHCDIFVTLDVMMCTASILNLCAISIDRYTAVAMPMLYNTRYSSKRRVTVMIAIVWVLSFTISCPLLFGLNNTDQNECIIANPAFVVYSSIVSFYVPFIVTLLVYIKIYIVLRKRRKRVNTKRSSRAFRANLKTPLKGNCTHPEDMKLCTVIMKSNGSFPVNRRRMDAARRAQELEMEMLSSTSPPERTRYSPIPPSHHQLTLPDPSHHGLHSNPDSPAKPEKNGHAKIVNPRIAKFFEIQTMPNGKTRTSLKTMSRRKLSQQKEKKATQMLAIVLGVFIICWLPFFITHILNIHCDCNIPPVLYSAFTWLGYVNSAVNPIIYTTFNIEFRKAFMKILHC

SMILES	Activity [1]	Activity [2]	Ki [3] [nM]	Ki [4] [nM]	Ki [5] [nM]	Activity [7] [%]	Activity [8] [%]	Activity [9]	Activity [10]	deltaT [11] [°C]	deltaT [12] [°C]	deltaT [13] [°C]	deltaT [14] [°C]	deltaT [15] [°C]	deltaT [16] [°C]	deltaT [17] [°C]	deltaT [18] [°C]	deltaT [19] [°C]	deltaT [20] [°C]	deltaT [22] [°C]	further results
COc1cc(N)c(Cl)cc1C(=O)N[C@@H]1CC2CC[C@H](C1)N2CC1CCCO1 (single isomer, unassigned)	2.4	2.4	5700	6.2	103	63	92	0.3	0.5	-0.1	-0.2	-0.8	-0.1	0	-0.3	0	-0.1	-0.1	0	-0.1	Activity [6]: Active; deltaT [21]: 0 °C; deltaT [23]: -2.9 °C; deltaT [24]: -2.9 °C; deltaT [25]: -1.6 °C; deltaT [26]: -0.6 °C; Activity [27]: Active
COc1ccccc1N1CCN(CCN(C(=O)C2CCCCC2)c2ccccn2)CC1.Cl.Cl.Cl	–	–	–	–	–	–	–	–	–	–	–	–	–	–	–	–	–	–	–	–	Activity [28]: 0; Activity [29]: 0.3
O=C(N[C@@H]1CC2CC[C@H](C1)N2Cc1ccccc1)c1ccc2ccccc2c1 (single isomer, unassigned)	2.6	2.6	304	2.5	82.4	81	100	0.2	0.1	-1.5	–	–	-0.9	–	–	-0.6	–	–	-0.5	–	Activity [30]: 2.7; Activity [31]: 15; Activity [32]: 321; Activity [33]: inactive; Activity [34]: inactive; Activity [35]: 95%; Activity [36]: 0.1; deltaT [37]: -0.2 °C; deltaT [38]: 0.1 °C; deltaT [39]: -0.1 °C; deltaT [40]: 0 °C; deltaT [41]: -1.3 °C; deltaT [42]: -0.9 °C
Br.CCCN(CCC)C1CCc2cccc(O)c2C1 (stereo not drawn)	–	–	–	–	–	–	–	–	–	–	–	–	–	–	–	–	–	–	–	–	Activity [43]: 45%; Activity [44]: 57%
COc1cc(N)c(Cl)cc1C(=O)N[C@H]1CC2CC[C@H](C1)N2Cc1ccco1 (single isomer, unassigned)	2.6	2.7	2500	16.6	18.2	68	100	0.2	0.1	0	-0.3	-1.8	-0.3	-0.2	-1	0.1	-0.1	-1	0.1	-0.9	Activity [45]: inactive; Activity [46]: inactive; Activity [47]: Active; Activity [48]: Active; Activity [49]: Active; Activity [35]: 97%; deltaT [21]: -0.1 °C; deltaT [50]: -1.3 °C; deltaT [51]: -0.8 °C; Activity [52]: Active
O=C(N[C@H]1CC2CC[C@H](C1)N2Cc1ccco1)c1ccc2ccccc2c1 (single isomer, unassigned)	2.7	2	2800	24.1	203	–	–	0.1	0.6	-0.2	–	-1.3	0.1	–	-0.8	0.1	–	-0.4	0.1	-0.2	Activity [53]: 233; Activity [54]: 566; Activity ([45]; route intraperitoneal): 9%; Activity [46]: inactive; deltaT [50]: -1.2 °C; deltaT [51]: -1.1 °C
